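The compound was tested at five concentrations on cells cultured in 96-well plates, with a 48-hour exposure period. Abbreviation: GI50, concentration required for 50% inhibition of growth.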 Calls of active or inactive are those of the source. Rule as the data show it: active = GI50 up to about 1.1 µM and inactive = higher.
Experiments:
Test in all cases: NCI-60 cell line screen, 48 h
[1] = tested on: HCT-15
[2] = tested on: SK-OV-3
[3] = tested on: SK-MEL-5
[4] = tested on: SR
[5] = tested on: HT-29
[6] = tested on: CAKI-1
[7] = tested on: HOP-62
[8] = tested on: EKVX
[9] = tested on: PC-3
[10] = tested on: MCF7
[11] = tested on: COLO 205
[12] = tested on: KM12
[13] = tested on: BT-549
[14] = tested on: MDA-MB-435
[15] = tested on: UO-31
[16] = tested on: K562
[17] = tested on: SNB-75
[18] = tested on: RXF 393
[19] = tested on: Malme-3M
[20] = tested on: UACC-62

Row | SMILES | GI50 [1] [µM] | GI50 [2] | GI50 [3] | GI50 [4] | GI50 [5] | GI50 [6] | GI50 [7] | GI50 [8] | GI50 [9] | GI50 [10] | GI50 [11] | GI50 [12] | GI50 [13] | GI50 [14] | GI50 [15] | GI50 [16] | GI50 [17] | GI50 [18] | GI50 [19] | GI50 [20]
1 | N=C(N)SCc1ccc(Cl)cc1Cl.O=[N+]([O-])c1c(O)c(Cl)cc(Cl)c1Cl | 13.3 | 17.3 µM (inactive) | 15.3 µM (inactive) | 5.21 µM (inactive) | 11 µM (inactive) | 11 µM (inactive) | 14.5 µM (inactive) | 15.3 µM (inactive) | 11.9 µM (inactive) | 11.5 µM (inactive) | 14.2 µM (inactive) | 13.7 µM (inactive) | 16.3 µM (inactive) | 6.22 µM (inactive) | 9.06 µM (inactive) | 4.35 µM (inactive) | 15.1 µM (inactive) | 12.8 µM (inactive) | 15.6 µM (inactive) | 14.4 µM (inactive)
2 | O=C(O)CC1(C(=O)O)CCCCC1 | > 100 | > 100 µM (inactive) | > 100 µM (inactive) | > 100 µM (inactive) | > 100 µM (inactive) | > 100 µM (inactive) | > 100 µM (inactive) | > 100 µM (inactive) | > 100 µM (inactive) | > 100 µM (inactive) | > 100 µM (inactive) | > 100 µM (inactive) | > 100 µM (inactive) | > 100 µM (inactive) | > 100 µM (inactive) | > 100 µM (inactive) | > 100 µM (inactive) | > 100 µM (inactive) | > 100 µM (inactive) | > 100 µM (inactive)
3 | O=C(c1ccccc1)c1c(C(F)(F)F)[n+]([O-])c2cc(Cl)c(Cl)cc2[n+]1[O-] | 0.535 | 4.8 µM (inactive) | 2 µM (inactive) | 0.175 µM (active) | 0.473 µM (active) | 1.58 µM (inactive) | 0.357 µM (active) | 3.27 µM (inactive) | 1.18 µM (inactive) | 0.557 µM (active) | 2.93 µM (inactive) | 0.548 µM (active) | 1.39 µM (inactive) | 1.41 µM (inactive) | 1.47 µM (inactive) | 2.24 µM (inactive) | 1.31 µM (inactive) | 1.82 µM (inactive) | 1.72 µM (inactive) | 3.97 µM (inactive)
4 | COc1ccc(-c2cc(-c3ccc(Nc4ccnc5cc(C(F)(F)F)ccc45)cc3)nc(N)c2C#N)c2ccccc12 | > 100 | > 100 µM (inactive) | > 100 µM (inactive) | 32.5 µM (inactive) |  | > 100 µM (inactive) | > 100 µM (inactive) | > 100 µM (inactive) | > 100 µM (inactive) | 97.9 µM (inactive) | > 100 µM (inactive) | 68.5 µM (inactive) | 36.6 µM (inactive) | > 100 µM (inactive) | > 100 µM (inactive) |  | > 100 µM (inactive) | > 100 µM (inactive) | > 100 µM (inactive) | > 100 µM (inactive)
5 | COc1ccc(N(C)S(=O)(=O)c2ccccc2)cc1 | > 100 | > 100 µM (inactive) | 61.8 µM (inactive) | 87.9 µM (inactive) | > 100 µM (inactive) | > 100 µM (inactive) | > 100 µM (inactive) | > 100 µM (inactive) | 72.1 µM (inactive) | > 100 µM (inactive) | > 100 µM (inactive) | > 100 µM (inactive) | > 100 µM (inactive) | 59.2 µM (inactive) | > 100 µM (inactive) | 28.5 µM (inactive) | > 100 µM (inactive) | > 100 µM (inactive) | > 100 µM (inactive) | 75 µM (inactive)
6 | O=C1Nc2c(Cl)cc(Cl)cc2/C1=N/NC(=O)c1ccncc1 | 32.1 | 25.6 µM (inactive) | 17.9 µM (inactive) | 14.7 µM (inactive) | 27.4 µM (inactive) | 18.4 µM (inactive) | 25.8 µM (inactive) | 28.5 µM (inactive) | 15.7 µM (inactive) | 32.9 µM (inactive) | 27.2 µM (inactive) | 30.9 µM (inactive) | 37.8 µM (inactive) | 16.5 µM (inactive) | 27.9 µM (inactive) | 27.9 µM (inactive) | 46.3 µM (inactive) | 20 µM (inactive) | 16.9 µM (inactive) | 17.3 µM (inactive)
7 | C=CCN1C(=O)CC(=O)N(NC2=NNC3(C(=O)N2)c2ccccc2-c2ccccc23)C1=S | 35.7 | 42.2 µM (inactive) | 31.4 µM (inactive) | 15.6 µM (inactive) | 37.9 µM (inactive) | 48.3 µM (inactive) | 26.7 µM (inactive) | 29.4 µM (inactive) | 23.9 µM (inactive) | 25.8 µM (inactive) | 21.7 µM (inactive) |  | 45 µM (inactive) | 44.5 µM (inactive) | 31.8 µM (inactive) | 31.5 µM (inactive) | 48.2 µM (inactive) | 27.7 µM (inactive) | 38 µM (inactive) | 28.5 µM (inactive)
8 | N=C(N)NS(=O)(=O)c1ccc(NC(=O)c2cccc3c(O)c4ccccc4nc23)cc1 | > 100 | 58.2 µM (inactive) | > 100 µM (inactive) | > 74.8 µM (inactive) | > 100 µM (inactive) | > 100 µM (inactive) | > 78.5 µM (inactive) | > 100 µM (inactive) | > 100 µM (inactive) | > 100 µM (inactive) | > 100 µM (inactive) | > 100 µM (inactive) | > 100 µM (inactive) | > 100 µM (inactive) | > 100 µM (inactive) | 44 µM (inactive) | 31.8 µM (inactive) | > 41 µM (inactive) | > 100 µM (inactive) | > 100 µM (inactive)
9 | CC(=O)C1(C)CC(C#N)(C#N)C(C#N)=C1N (stereo unspecified) | > 100 | > 100 µM (inactive) | > 100 µM (inactive) | 56.2 µM (inactive) | > 100 µM (inactive) | 66.8 µM (inactive) | > 100 µM (inactive) | 26.5 µM (inactive) | > 100 µM (inactive) | > 100 µM (inactive) | > 100 µM (inactive) | > 100 µM (inactive) | > 100 µM (inactive) | > 100 µM (inactive) | > 100 µM (inactive) | > 100 µM (inactive) | > 100 µM (inactive) | > 100 µM (inactive) | > 100 µM (inactive) | > 100 µM (inactive)
10 | N#Cc1c(O)c(/C=N/c2ccc(Cl)cc2)c(=O)n2c1[nH]c1ccccc12 | 36.5 | > 100 µM (inactive) | > 100 µM (inactive) | > 100 µM (inactive) | > 100 µM (inactive) | > 100 µM (inactive) | > 100 µM (inactive) | > 100 µM (inactive) | > 100 µM (inactive) | > 100 µM (inactive) | > 100 µM (inactive) | > 100 µM (inactive) | > 100 µM (inactive) | > 100 µM (inactive) | > 100 µM (inactive) | > 100 µM (inactive) | > 100 µM (inactive) | > 100 µM (inactive) | > 100 µM (inactive) | > 100 µM (inactive)
11 | Cc1cc(C)nc(NC(=S)Nc2ccc(Cl)cc2)c1 | > 100 | 23.4 µM (inactive) | > 100 µM (inactive) | > 100 µM (inactive) | > 100 µM (inactive) | 60.5 µM (inactive) | 35.9 µM (inactive) | 17.4 µM (inactive) | > 100 µM (inactive) | > 100 µM (inactive) | > 100 µM (inactive) | 53.6 µM (inactive) | > 100 µM (inactive) | > 100 µM (inactive) | > 100 µM (inactive) | > 100 µM (inactive) | 11.9 µM (inactive) | 36.1 µM (inactive) | 34.8 µM (inactive) | > 100 µM (inactive)
12 | Oc1nc2cc(Cl)ccc2nc1/C(=N\Nc1ccccc1)C(O)c1ccc2c(c1)OCO2 (stereo unspecified) | > 100 | > 100 µM (inactive) | > 100 µM (inactive) | > 100 µM (inactive) | > 100 µM (inactive) | > 100 µM (inactive) | > 100 µM (inactive) | > 100 µM (inactive) | > 100 µM (inactive) | > 100 µM (inactive) | > 100 µM (inactive) | > 100 µM (inactive) | > 100 µM (inactive) | > 100 µM (inactive) | > 100 µM (inactive) | > 100 µM (inactive) | > 100 µM (inactive) | > 100 µM (inactive) | > 100 µM (inactive) | > 100 µM (inactive)
13 | O=C(NC(N1CCN(c2cc3c(cc2F)c(=O)c(C(=O)O)cn3C2CC2)CC1)(C(F)(F)F)C(F)(F)F)c1ccccc1 | 22.1 | 34.1 µM (inactive) | 26 µM (inactive) | 29.8 µM (inactive) | 24.1 µM (inactive) | 22.9 µM (inactive) | 38.5 µM (inactive) | 35.6 µM (inactive) | 45.1 µM (inactive) | 29.8 µM (inactive) | 19.1 µM (inactive) | 29.2 µM (inactive) | 51.2 µM (inactive) | 34.1 µM (inactive) | 30.5 µM (inactive) | 39.4 µM (inactive) | 33.6 µM (inactive) | 46.1 µM (inactive) | 36.6 µM (inactive) | 33.3 µM (inactive)
14 | O=C1CCCCC(=O)OC2(CCCCC2=O)CC1 (stereo unspecified) | > 100 | > 100 µM (inactive) | > 100 µM (inactive) | > 100 µM (inactive) | > 100 µM (inactive) | > 100 µM (inactive) | > 100 µM (inactive) |  | > 100 µM (inactive) | > 100 µM (inactive) | > 100 µM (inactive) | > 100 µM (inactive) | > 100 µM (inactive) | > 100 µM (inactive) | > 100 µM (inactive) | > 100 µM (inactive) | 5.82 µM (inactive) | > 100 µM (inactive) | > 100 µM (inactive) | > 100 µM (inactive)

From ChEMBL document CHEMBL1201862, “PubChem BioAssay data set” (2004)
